Measurements as given in ChEMBL document CHEMBL3046930, “Germination and growth inhibitors from wheat (Triticum aestivum L.) husks” (2002).
Active and inactive are the calls of the source.

What was measured:
Assay type in all cases: functional
Triticum aestivum [1] = assay: Growth inhibition of intact Triticum aestivum (wheat) seed assessed as appearance of sprouts at 500 ppm after 4 days relative to wheat grains RL4137 germination
Triticum aestivum [2] = assay: Inhibition of intact Triticum aestivum (wheat) seed germination assessed as appearance of sprouts at 500 ppm after 4 days relative to wheat grains RL4137 germination
Triticum aestivum [3] = assay: Growth inhibition of intact Triticum aestivum (wheat) seed assessed as appearance of distinct rootlets at 500 ppm after 4 days relative to wheat grains RL4137 germination
Triticum aestivum [4] = assay: Inhibition of intact Triticum aestivum (wheat) seed germination assessed as appearance of distinct rootlets at 500 ppm after 4 days relative to wheat grains RL4137 germination

CC1(C)CCC[C@@]2(C)OC(=O)C=C12
active: growth inhibition (GI) (Triticum aestivum [1]) | inhibition (Triticum aestivum [2]) | growth inhibition (GI) (Triticum aestivum [3]) | inhibition (Triticum aestivum [4])

CC1(C)CCC[C@]2(C)OC(=O)C=C12
active: growth inhibition (GI) (Triticum aestivum [1]) | inhibition (Triticum aestivum [2]) | growth inhibition (GI) (Triticum aestivum [3]) | inhibition (Triticum aestivum [4])

CC1(C)CCCC2(C)OC(=O)C=C12 (racemic)
active: growth inhibition (GI) (Triticum aestivum [1]) | inhibition (Triticum aestivum [2]) | growth inhibition (GI) (Triticum aestivum [3]) | inhibition (Triticum aestivum [4])

CC(O)c1ccccc1 (racemic)
active: growth inhibition (GI) (Triticum aestivum [1]) | inhibition (Triticum aestivum [2]) | growth inhibition (GI) (Triticum aestivum [3]) | inhibition (Triticum aestivum [4])

C[C@@H](O)c1ccccc1
active: growth inhibition (GI) (Triticum aestivum [1]) | inhibition (Triticum aestivum [2]) | growth inhibition (GI) (Triticum aestivum [3]) | inhibition (Triticum aestivum [4])

C[C@H](O)c1ccccc1
active: growth inhibition (GI) (Triticum aestivum [1]) | inhibition (Triticum aestivum [2]) | growth inhibition (GI) (Triticum aestivum [3]) | inhibition (Triticum aestivum [4])
